Experimental data: ChEMBL document CHEMBL1201862, “PubChem BioAssay data set” (2004)
Active and inactive are the calls of the source.

Experiments:
[1] = Vero cell cytotoxicity, dose response, cytotoxicity control for Vif-APOBEC3G degradation inhibitor project, Vero cells (AID 1117358); type: functional; conditions: Human immunodeficiency virus 1, Vero
[2] = inhibitors of intracellular T. cruzi replication, confirmation, NIH3T3 host cells, beta-gal luminescence (AID 2044); type: functional, cell-based;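 further: intracellular parasites grown in NIH/3T3 mouse fibroblasts as host cells; luminescent beta-galactosidase reporter signal from transgenic T. cruzi replicating inside host cells; inhibitors lower the luminescence signal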
[3] = cytotoxicity toward NIH3T3 fibroblasts, dose response, counter-screen, cell-based, ATP luminescence, mouse fibroblasts (AID 2010); type: functional;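 further: cells exposed to compound for about 90 hours before reading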
[4] = target: T1, Short transient receptor potential channel 4 (Mus musculus, UniProt Q9QUQ5); assay: mouse TRPC4 channel inhibitors, dose response, cell-based, HEK293 TRPC4/mu-opioid, Fluo-4 calcium (AID 434942); type: functional;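 further: potency of inhibitors blocking the TRPC4 calcium response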
T1 sequence (Q9QUQ5 whole entry): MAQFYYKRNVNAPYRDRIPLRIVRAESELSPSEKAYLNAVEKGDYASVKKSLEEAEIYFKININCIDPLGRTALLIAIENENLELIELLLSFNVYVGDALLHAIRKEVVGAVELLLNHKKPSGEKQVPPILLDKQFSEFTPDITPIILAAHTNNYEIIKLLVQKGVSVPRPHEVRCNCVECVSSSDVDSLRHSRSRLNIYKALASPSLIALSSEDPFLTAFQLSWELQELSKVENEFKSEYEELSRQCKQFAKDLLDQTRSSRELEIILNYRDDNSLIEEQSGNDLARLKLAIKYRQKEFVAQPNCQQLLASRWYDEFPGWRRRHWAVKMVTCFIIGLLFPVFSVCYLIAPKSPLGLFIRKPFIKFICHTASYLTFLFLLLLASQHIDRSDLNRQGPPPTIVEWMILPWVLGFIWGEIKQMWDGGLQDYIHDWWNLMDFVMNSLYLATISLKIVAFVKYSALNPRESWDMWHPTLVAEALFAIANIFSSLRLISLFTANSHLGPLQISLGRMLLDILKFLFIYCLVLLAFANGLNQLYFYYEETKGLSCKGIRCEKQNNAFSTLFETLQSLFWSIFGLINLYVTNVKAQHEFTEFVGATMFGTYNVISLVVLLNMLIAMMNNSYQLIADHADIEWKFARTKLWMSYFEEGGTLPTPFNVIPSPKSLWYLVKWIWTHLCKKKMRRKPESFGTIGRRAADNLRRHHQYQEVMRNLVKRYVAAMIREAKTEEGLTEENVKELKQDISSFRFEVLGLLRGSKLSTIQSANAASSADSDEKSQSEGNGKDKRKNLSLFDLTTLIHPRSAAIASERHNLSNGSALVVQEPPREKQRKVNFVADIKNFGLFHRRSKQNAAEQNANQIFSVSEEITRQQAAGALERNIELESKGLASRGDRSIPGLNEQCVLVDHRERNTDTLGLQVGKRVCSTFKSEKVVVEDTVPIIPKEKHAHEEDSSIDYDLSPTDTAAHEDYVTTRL

[5] = THP-1 cell cytotoxicity, dose response, cytotoxicity control for Vif-APOBEC3G degradation inhibitor project, THP-1 cells (AID 1117359); type: functional; conditions: Human immunodeficiency virus 1, THP-1
[6] = P. falciparum 3D7-ScDHODH growth inhibitors, dose response, SYBR Green, dry powder samples (AID 1159570); type: functional, cell-based;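 further: parasite growth measured after 72 hours of compound exposure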
[7] = HepG2 cell cytotoxicity, dose response, cytotoxicity control, plate reader, dry powder samples (AID 1159569); type: functional, cell-based;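 further: inhibitor potency with signal falling toward the positive control level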
[8] = P. falciparum Dd2 growth inhibitors, dose response, SYBR Green, cherry-picked samples (AID 1159567); type: functional, cell-based
[9] = P. falciparum Dd2 growth inhibitors, dose response, SYBR Green, dry powder samples (AID 1159566); type: functional, cell-based;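 further: potency for growth inhibition with lower SYBR green DNA signal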
[10] = HepG2 cell cytotoxicity, dose response, cytotoxicity control, cherry-picked samples (AID 1159577); type: functional, cell-based
[11] = P. falciparum ATP4 D1247Y mutant growth inhibitors, dose response, NITD609-resistant line, SYBR Green, dry powder (AID 1159571); type: functional, cell-based;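 further: parasites synchronized at ring stage by sorbitol before testing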
[12] = Luminescence Cell-Based Dose Response to Identify Activators of 5'UTR Stem-Loop Driven Prion Protein mRNA Translation in H4-C Neuroglioblastoma Cells. [Related pubchem assays: 1829 (Project Summary), 1814 (Primary HTS)]; type: functional
[13] = Luminescence Cell-Based Dose Response HTS to Identify Activators of Luciferase Translation or Activity in H4 […] Cells. [Related pubchem assays: 1829 (Project Summary), 1814 (Primary HTS)]; type: functional
H4 = assay: Luminescence Cell-Based Dose Response HTS to Identify Activators of 5'UTR Stem-Loop Driven Prion Protein mRNA Translation in H4 Neuroglioblastoma Cells. [Related pubchem assays: 1829 (Project Summary), 1814 (Primary HTS)]; type: functional; conditions: Homo sapiens
[14] = Luminescence Cell-Based Dose Response to Identify Activators of Luciferase Translation or Activity in H4-C Neuroglioblastoma Cells. [Related pubchem assays: 1829 (Project Summary), 1814 (Primary HTS)]; type: functional
[15] = Luminescence Cell-Based Dose Confirmation to Identify Activators of 5'UTR Stem-Loop Driven Alpha-Synuclein mRNA Translation in H4 Neuroglioblastoma Cells. [Related pubchem assays: 1829 (Project Summary), 1814 (Primary HTS)]; type: functional
[16] = target: T2, Ubiquitin-conjugating enzyme E2 N (Homo sapiens, UniProt P61088); type: functional;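 further: Dose-response confirmation in a TR-FRET assay detecting UBC13-driven polyubiquitin chain formation, inhibition measured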
T2 sequence (P61088 whole entry): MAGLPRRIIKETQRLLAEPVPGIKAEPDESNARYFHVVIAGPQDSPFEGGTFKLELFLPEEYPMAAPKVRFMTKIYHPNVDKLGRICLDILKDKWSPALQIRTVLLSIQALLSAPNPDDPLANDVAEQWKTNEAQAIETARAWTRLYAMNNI

INS1 = assay: beta cell apoptosis inhibitors, cytokine rescue, dose response, luminescence, retest (AID 449756); type: functional, cell-based; conditions: Rattus norvegicus;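 further: cell death triggered by IL-1 beta plus TNF-alpha plus IFN-gamma mixture; protective hits raise ATP signal compared with cytokine alone wells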
Danio rerio = assay: In Vivo Angiogenesis Dose-Response Confirmation. [Related pubchem assays: 732 (Assay preceding this confirmatory assay.)]; type: functional, organism-based
[17] = Luminescence Cell-Based Dose Retest to Confirm Inhibitors of Cancer Stem Cells. [Related pubchem assays (depositor defined):AID2717, AID2721]; type: functional; conditions: Homo sapiens
[18] = Luminescence-based cell-based high throughput dose response assay to identify activators of the DAF-12 from the parasite S. stercoralis (ssDAF-12).; type: functional
Cytochrome P450 3A4 = Cytochrome P450 3A4 (Homo sapiens, UniProt P08684);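 further: CYP3A4 tested as one member of a cytochrome P450 panel screen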
Sequence of Cytochrome P450 3A4 (P08684 whole entry): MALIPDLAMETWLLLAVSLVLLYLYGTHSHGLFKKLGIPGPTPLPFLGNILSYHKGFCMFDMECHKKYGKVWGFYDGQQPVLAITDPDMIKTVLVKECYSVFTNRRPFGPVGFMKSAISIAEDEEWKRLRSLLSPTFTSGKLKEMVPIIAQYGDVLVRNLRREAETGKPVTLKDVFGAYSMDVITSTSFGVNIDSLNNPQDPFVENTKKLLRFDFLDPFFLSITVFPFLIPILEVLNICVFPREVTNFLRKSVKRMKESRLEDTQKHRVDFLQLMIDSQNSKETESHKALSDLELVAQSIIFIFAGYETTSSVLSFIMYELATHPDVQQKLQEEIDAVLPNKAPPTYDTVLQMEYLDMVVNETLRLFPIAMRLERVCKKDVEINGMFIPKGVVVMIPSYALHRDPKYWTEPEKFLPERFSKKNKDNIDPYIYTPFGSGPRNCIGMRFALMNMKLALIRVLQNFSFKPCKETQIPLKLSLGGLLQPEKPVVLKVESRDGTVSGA

[19] = target: NAD-dependent protein deacylase sirtuin-5, mitochondrial (Homo sapiens, UniProt Q9NXA8); assay: SIRT5 deacylase inhibitors, dose response, biochemical, fluorescence imaging, cherry-pick, set 6 (AID 720597)
Sequence of NAD-dependent protein deacylase sirtuin-5, mitochondrial (Q9NXA8 whole entry): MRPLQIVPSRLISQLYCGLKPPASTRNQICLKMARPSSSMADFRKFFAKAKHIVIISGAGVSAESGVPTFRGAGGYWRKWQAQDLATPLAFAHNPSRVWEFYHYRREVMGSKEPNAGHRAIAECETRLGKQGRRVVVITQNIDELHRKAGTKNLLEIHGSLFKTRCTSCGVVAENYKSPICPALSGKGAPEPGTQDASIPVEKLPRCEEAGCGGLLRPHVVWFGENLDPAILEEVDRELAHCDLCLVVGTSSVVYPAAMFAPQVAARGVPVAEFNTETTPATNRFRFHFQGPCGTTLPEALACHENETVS

[20] = target: Aryl hydrocarbon receptor (Homo sapiens, UniProt P35869); assay: Luminescence-based cell-based high throughput dose response assay for activators of the Aryl Hydrocarbon Receptor (AHR). [Related pubchem assays: 2796 (Primary screen (AHR activators in singlicate)), 2845 (Confirmation screen (AHR activators in triplicate)), 434939 (Counterscreen (PXR activators in triplicate)), 2804 (Summary (AHR activators))]; type: ADME
Sequence of Aryl hydrocarbon receptor (P35869 whole entry): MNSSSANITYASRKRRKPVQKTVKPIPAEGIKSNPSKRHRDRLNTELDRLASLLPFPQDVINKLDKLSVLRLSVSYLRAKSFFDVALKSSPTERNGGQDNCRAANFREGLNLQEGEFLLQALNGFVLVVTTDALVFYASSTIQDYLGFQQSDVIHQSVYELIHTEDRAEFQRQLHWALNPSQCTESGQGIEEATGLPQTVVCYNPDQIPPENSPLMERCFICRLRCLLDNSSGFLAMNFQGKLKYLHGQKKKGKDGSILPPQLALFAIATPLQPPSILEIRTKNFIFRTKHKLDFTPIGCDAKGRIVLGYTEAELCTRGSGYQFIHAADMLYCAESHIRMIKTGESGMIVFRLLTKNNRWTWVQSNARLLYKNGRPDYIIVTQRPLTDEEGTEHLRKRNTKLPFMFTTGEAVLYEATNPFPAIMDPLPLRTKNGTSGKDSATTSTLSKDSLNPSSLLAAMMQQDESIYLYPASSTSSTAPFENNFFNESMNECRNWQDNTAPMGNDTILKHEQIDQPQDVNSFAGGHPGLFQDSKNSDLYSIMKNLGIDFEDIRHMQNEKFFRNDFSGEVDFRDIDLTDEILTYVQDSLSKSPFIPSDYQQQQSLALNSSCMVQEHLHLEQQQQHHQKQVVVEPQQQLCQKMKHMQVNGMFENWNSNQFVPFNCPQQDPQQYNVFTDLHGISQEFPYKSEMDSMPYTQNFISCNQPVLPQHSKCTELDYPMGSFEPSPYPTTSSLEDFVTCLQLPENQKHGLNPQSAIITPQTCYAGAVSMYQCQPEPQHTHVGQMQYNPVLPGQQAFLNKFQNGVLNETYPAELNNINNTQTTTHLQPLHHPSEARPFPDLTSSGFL

[21] = cytotoxicity in HPDE-C7 cells, cell-based, fluorescence, HTS (AID 430); type: functional; conditions: Homo sapiens
[22] = cytotoxicity in KRAS-transformed pancreatic duct cells, primary screen, cell-based, fluorescence, HTS (AID 431); type: functional; conditions: Homo sapiens;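 further: cell line used: HPDE-C7K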

## Cc1ccc(Nc2nc(C(=O)NCc3ccco3)cs2)cc1
[1]
  CC50: > 40 µM (active)

## COc1cc(CN(C)CC2CCCN(CCc3ccccc3F)C2)cc(Cl)c1OC (stereo not drawn)
[2]
  EC50: < 0.1 µM (active)
[3]
  EC50: 11.1 µM (active)
[4]
  EC50: 3.35 µM (active)
cells
  EC50: 0.263 µM (active)

## CCn1c(=O)oc2cc(NC(=O)CCl)ccc21
[5]
  CC50: > 40 µM (active)

## COc1ccc(-c2ccc([C@H]3[C@@H]4CN(S(=O)(=O)c5cccc(C)c5)C[C@H]3N4)cc2)cc1
[6]
  AC50: 1.48 µM (active)
[7]
  AC50: 20.8 µM (active)
[8]
  AC50: 1.99 µM (active)
[9]
  AC50: 2 µM (active)
[10]
  AC50: > 39 µM (inactive)
[11]
  AC50: 1.86 µM (active)

## COc1ccccc1-c1nc(-c2ccc(Br)cc2)no1
[12]
  EC50: 0.427 µM (active)
[13]
  EC50: 0.217 µM (active)
H4
  EC50: < 0.1 µM (active)
[14]
  EC50: 0.378 µM (active)
[15]
  EC50: 0.34 µM (active)

## CC(C)(C)c1cc(NCCCn2ccnc2)n2ncc(-c3ccccc3)c2n1
[12]
  EC50: 1.27 µM (active)
[13]
  EC50: < 0.1 µM (active)
H4
  EC50: > 120 µM (not active)
[14]
  EC50: 0.377 µM (active)
[15]
  EC50: 0.735 µM (active)
[16]
  IC50: > 20 µM (inactive)
INS1
  AC50: 11 µM (active)

## O=c1c2ccccc2nc2n1CCc1c-2[nH]c2ccccc12 [RUTAECARPINE]
Danio rerio
  IC50: 25.5 µM (not active)
[17]
  AC50: 25.1 µM (active)
[18]
  IC50: > 67.6 µM (inactive)
Cytochrome P450 3A4
  AC50: 3.98 µM (inconclusive)

## CCCC#Cc1ccc2c(c1)O[C@@H](CN(C)C(=O)Nc1ccccc1F)[C@H](C)CN([C@H](C)CO)S2(=O)=O
[19]
  AC50: > 30 µM (inactive)

## O=C1/C(=C\c2ccco2)CCC/C1=C\c1ccco1
[5]
  CC50: > 40 µM (active)

## O=C(CN1CCOCC1)Nc1nc2ccc([N+](=O)[O-])cc2s1
[20]
  EC50: 2.61 µM (active)

## CCN1C(=O)CS/C1=N/C1C2CC3CC(C2)CC1C3 (stereo not drawn)
[21]
  EC50: > 20 µM (not active)
[22]
  EC50: 11.4 µM (active)
